From US4368203A, “Antibiotics and derivatives thereof having β-lactamase inhibitory activity and production thereof” (priority 1977, dated 1983)
In brackets after ≈: the same amount, converted by molar mass. Like-named read-outs stand apart in the source and are kept apart here. Blank lines part the entries; values can stand above or below the compound they belong to.

Tests used:
[1] = test system: Enterobacter aerogenes E-19; experiment: MIC, broth dilution method; conditions: Klebsiella aerogenes, E19, 20 h, read-out: Minimum inhibitory concentration
[2] = test system: Staphylococcus aureus FDA 209P; experiment: MIC, broth dilution method; type: cell-based; conditions: for MIC: Staphylococcus aureus, FDA209P, Table 7, no unit in the head, read-out: Minimum inhibitory concentration
Proteus sp. P-22 = experiment: MIC, broth dilution method; conditions: 20 h, read-out: Minimum inhibitory concentration
Citrobacter freundii E-9 [3] = experiment: MIC, broth dilution method; type: cell-based; conditions: for MIC: Citrobacter freundii, read-out: Minimum inhibitory concentration
Protocol: (§1) Sodium salt of the antibiotic PS-7 was dissolved and diluted with the BRAIN HEART INFUSION BROTH "Eiken" at a concentration between 5 μg/ml and 100 μg/ml. The solution was further diluted with the same medium to obtain a series of geometric concentrations. To the serial dilutions were added the seed cultures prepared by shaking culture of various test microorganisms shown in Tab. 5 in the BRAIN HEART INFUSION GROTH at 28° C. for 18 hours, the final cell count being about 1×10^5 /ml. […] The lowest concentration at which no cell growth was observed was the minimum inhibitory concentration of the antibiotic PS-7 on the test microorganism. […] . The minimum inhibitory concentrations on test strains were determined in the same manner as mentioned above. […] For the comparison, the results on the known antibiotics Cephazolin and Cefoxitin are also given in the same table.

[4] = test system: Staphylococcus aureus FDA 209P; experiment: MIC, broth dilution method; type: cell-based; conditions: FDA209P, read-out: Minimum inhibitory concentration
Protocol: as §1

[5] = test system: Alcaligenes faecalis B-326; experiment: MIC, broth dilution method; type: cell-based; conditions: for MIC: Alcaligenes faecalis, read-out: Minimum inhibitory concentration
Protocol: as §1

[6] = test system: Diplococcus pneumoniae Type III; experiment: MIC, broth dilution method; type: cell-based; conditions: Streptococcus pneumoniae, read-out: Minimum inhibitory concentration
Protocol: as §1

[7] = test system: Klebsiella pneumoniae K-2; experiment: MIC, broth dilution method; conditions: for MIC: Klebsiella pneumoniae, K2, 20 h, read-out: Minimum inhibitory concentration
Serratia marcescens S-18 [8] = experiment: MIC, broth dilution method; conditions: S18, 20 h, read-out: Minimum inhibitory concentration
Providencia sp. P-8 = experiment: MIC, broth dilution method; conditions: SP.P8, 20 h, read-out: Minimum inhibitory concentration
Proteus vulgaris P-5 [9] = experiment: MIC, broth dilution method; conditions: for MIC: Proteus vulgaris, P5, 20 h, read-out: Minimum inhibitory concentration
[10] = test system: Bacillus subtilis ATCC 6633; experiment: MIC, broth dilution method; conditions: ATCC6633, 20 h, read-out: Minimum inhibitory concentration
[11] = test system: Staphylococcus aureus Rassell; experiment: MIC, broth dilution method; conditions: 20 h, read-out: Minimum inhibitory concentration
[12] = test system: Enterobacter cloacae E-16; experiment: MIC, broth dilution method; type: cell-based; conditions: for MIC: Enterobacter cloacae, read-out: Minimum inhibitory concentration
Protocol: Sodium salt of the antibiotic PS-7 was dissolved and diluted with the BRAIN HEART INFUSION BROTH "Eiken" at a concentration between 5 μg/ml and 100 μg/ml. The solution was further diluted with the same medium to obtain a series of geometric concentrations. To the serial dilutions were added the seed cultures prepared by shaking culture of various test microorganisms shown in Tab. 5 in the BRAIN HEART INFUSION GROTH at 28° C. for 18 hours, the final cell count being about 1×10^5 /ml. […] The lowest concentration at which no cell growth was observed was the minimum inhibitory concentration of the antibiotic PS-7 on the test microorganism. […] The minimum inhibitory concentrations on test strains were determined in the same manner as mentioned above.

Enterobacter sp. E-8 = experiment: MIC, broth dilution method; conditions: SP.E8, 20 h, read-out: Minimum inhibitory concentration
[13] = test system: Staphylococcus aureus Bx-1633; experiment: MIC, broth dilution method; conditions: BX1633, 20 h, read-out: Minimum inhibitory concentration
[14] = test system: Streptococcus pyogenes NY-5; experiment: MIC, broth dilution method; conditions: for MIC: Streptococcus pyogenes, NY5, 20 h, read-out: Minimum inhibitory concentration
Proteus rettgeri P-7 = experiment: MIC, broth dilution method; conditions: Providencia rettgeri, P7, 20 h, read-out: Minimum inhibitory concentration
Proteus mirabilis P-6 = experiment: MIC, broth dilution method; conditions: P6, 20 h, read-out: Minimum inhibitory concentration
[15] = test system: Diplococcus pneumoniae Type III; experiment: MIC, broth dilution method; type: cell-based
Proteus vulgaris P-5 [16] = experiment: Potentiating and synergistic effect, pulp disc inhibition zone on agar plate; type: cell-based
Protocol: (§2) 10 ml of 2.5 folds diluted nutrient agar (pH 7.0) containing 50 μg/ml of penicillin G or cephaloridine was seeded with the β-lactamase producing and β-lactam-resistant microorganisms and poured in a 9 cm Petri dish to provide the bio-assay agar plate. […] A control assay plate was similarly prepared without penicillin G or cephaloridine. As reference antibiotics, 10,000 μg/ml of penicillin G or 20 μl of cephaloridine were disc-assayed under the same conditions.
(§3) Cepholoridine was added to a 2.5-times diluted nutrient agar, pH 7.0 and the medium was inoculated with a β-lactam-producing strain that produceds β-lactamase. Ten ml of the medium was spread and solidified in a petri dish of 9 cm in diameter to prepare an assay plate. […] Each 20 μl of the solution and its 2- and 4-times diluted solutions was soaked in a pulp disc of 8 mm in diameter. To the surface of the above nutrient agar was placed the pulp disc and the size of the growth inhibitory zone around the disc was examined after incubation at 35° C. for 18 hours. […] In addition, for the comparison, a similar experiment was also performed with a pulp disk soaked with 20 μl of 10,000 μg/ml Penicillin G or Cepholoridine solution in place of the antibiotic PS-7.

Serratia marcescens S-18 [17] = experiment: as above; type: cell-based
Protocol: (§4) 10 ml of 2.5 folds diluted nutrient agar (pH 7.0) containing 50 μg/ml of penicillin G or cephaloridine was seeded with the β-lactamase producing and β-lactam-resistant microorganisms and poured in a 9 cm Petri dish to provide the bio-assay agar plate. On this assay plate, 8 mm of pulp discs each containing 20 μl of antibiotic PS-6 solution at the concentration of 240 μg/ml were placed and incubated at 35° C. for 18 hours before reading the inhibition zones. A control assay plate was similarly prepared without penicillin G or cephaloridine. As reference antibiotics, 10,000 μg/ml of penicillin G or 20 μl of cephaloridine were disc-assayed under the same conditions.

Citrobacter freundii E-9 [18] = experiment: as above; type: cell-based
Protocol: as §4

[19] = test system: β-lactamase-producing, β-lactam-resistant bacteria; experiment: Increase of the antibiotic activity of other antibiotics (summary in words); type: cell-based; conditions: β-lactamase-producing bacteria such as Proteus vulgaris, Serratia marcescens
Protocol: as §2, §3

[20] = E9, Table 7, no unit in the head, lactamase-producing strain
[21] = B326, Table 7, no unit in the head
[22] = E16, Table 7, no unit in the head, lactamase-producing strain
[23] = Table 9, lactamase producing organism
[24] = Table 9, 10% of horse blood in the medium
[25] = Table 6, agar containing 50 μg/ml of cephaloridine, disc 20 μl, PS-6 240 μg/ml, reference antibiotics 10,000 μg/ml
[26] = Table 6, agar containing 50 μg/ml of penicillin G, disc 20 μl, PS-6 240 μg/ml, reference antibiotics 10,000 μg/ml

Structure (SMILES): Cc1nnc(SCC2=C(C(=O)O)N3C(=O)[C@@H](NC(=O)Cn4cnnn4)[C@H]3SC2)s1 [Cefazorin]
MIC [1]: > 100 µg/mL
MIC [2]: 0.25 µg/mL (≈ 0.55 µM)
MIC (Proteus sp. P-22): > 100 µg/mL
MIC (Citrobacter freundii E-9 [3]; E9, 20 h): > 100 µg/mL
MIC (Citrobacter freundii E-9 [3]; [20]): > 100 µg/mL
MIC ([4]; Table 5, 35° C. 20 hours): 0.25 µg/mL (≈ 0.55 µM)
MIC ([5]; B326, Table 5, 35° C. 20 hours): 6.25 µg/mL (≈ 13.8 µM)
MIC [5, 21]: 6.25 µg/mL (≈ 13.8 µM)
MIC ([6]; 20 h): 0.125 µg/mL (≈ 0.275 µM)
MIC [6]: 0.125 µg/mL (≈ 0.275 µM)
MIC [7]: 6.25 µg/mL (≈ 13.8 µM)
MIC (Serratia marcescens S-18 [8]): > 100 µg/mL
MIC (Providencia sp. P-8): 50 µg/mL (≈ 110 µM)
MIC (Proteus vulgaris P-5 [9]): > 100 µg/mL
MIC [10]: 0.5 µg/mL (≈ 1.1 µM)
MIC [11]: 1 µg/mL (≈ 2.2 µM)
MIC [12, 22]: > 100 µg/mL
MIC (Enterobacter sp. E-8): 3.13 µg/mL (≈ 6.89 µM)
MIC [13]: 0.5 µg/mL (≈ 1.1 µM)
MIC [14]: 0.25 µg/mL (≈ 0.55 µM)
MIC (Proteus rettgeri P-7): 25 µg/mL (≈ 55 µM)
MIC (Proteus mirabilis P-6): 6.25 µg/mL (≈ 13.8 µM)

MIC [1]: > 100 µg/mL
MIC [2]: 2.5 µg/mL (≈ 5.85 µM)
MIC (Citrobacter freundii E-9 [3]; E9, 20 h, Table 5, betalactamase producer): > 100 µg/mL
MIC (Citrobacter freundii E-9 [3]; [20]): > 100 µg/mL
MIC ([4]; Table 5, 35° C. 20 hours): 2.5 µg/mL (≈ 5.85 µM)
MIC ([5]; B326, Table 5, 35° C. 20 hours): 1.56 µg/mL (≈ 3.65 µM)
MIC [5, 21]: 1.56 µg/mL (≈ 3.65 µM)
MIC ([6]; 20 h, Table 5, 10% horse blood supplemented into the medium): 2.5 µg/mL (≈ 5.85 µM)
MIC ([15]; Streptococcus pneumoniae, Table 7, no unit in the head, horse serum in the medium at 10%, read-out: Minimum inhibitory concentration): 2.5 µg/mL (≈ 5.85 µM)
MIC [7]: 6.25 µg/mL (≈ 14.6 µM)
MIC (Serratia marcescens S-18 [8]): 50 µg/mL (≈ 117 µM)
MIC [10]: 1.25 µg/mL (≈ 2.92 µM)
MIC [11]: 5 µg/mL (≈ 11.7 µM)
MIC ([12]; E16, 20 h, Table 5, betalactamase producer): > 100 µg/mL
MIC [12, 22]: > 100 µg/mL
MIC (Enterobacter sp. E-8): 12.5 µg/mL (≈ 29.2 µM)
MIC [13]: 2.5 µg/mL (≈ 5.85 µM)
MIC [14]: 1.25 µg/mL (≈ 2.92 µM)
Structure (SMILES): CO[C@@]1(NC(=O)Cc2cccs2)C(=O)N2C(C(=O)O)=C(COC(N)=O)CS[C@@H]21 [Cefoxitin]

Structure (SMILES): O=C(Cc1cccs1)N[C@@H]1C(=O)N2C(C(=O)[O-])=C(C[n+]3ccccc3)CS[C@H]12 [cephaloridine]
Minimum inhibitory concentration ([2]; Table 9, ester dissolved in methanol, final methanol not above 10%): 0.04 µg/mL (≈ 0.0963 µM)
MIC (Citrobacter freundii E-9 [3]; E9, 20 h): > 100 µg/mL
Minimum inhibitory concentration (Citrobacter freundii E-9 [3]; [23]): > 100 µg/mL
MIC ([4]; 20 h): 0.04 µg/mL (≈ 0.0963 µM)
MIC ([5]; B326, 20 h): 3.13 µg/mL (≈ 7.53 µM)
Minimum inhibitory concentration ([5]; Table 9): 3.13 µg/mL (≈ 7.53 µM)
MIC ([6]; 20 h): 0.01 µg/mL (≈ 0.0241 µM)
Minimum inhibitory concentration [15, 24]: 0.01 µg/mL (≈ 0.0241 µM)
MIC [7]: 20 µg/mL (≈ 48.1 µM)
Minimum inhibitory concentration [7, 23]: 20.0 µg/mL (≈ 48.1 µM)
zone of inhibition at 10000 µg/mL (Proteus vulgaris P-5 [16]; Proteus vulgaris, P5, 18 h, read-out: Diameter of inhibitory zone, No addition): 12 mm
zone of inhibition at 240 µg/mL (Proteus vulgaris P-5 [16]; Proteus vulgaris, P5, 18 h, read-out: Inhibition zone, Control): 12 mm
Inhibition zone, with cephaloridine (Proteus vulgaris P-5 [16]; [25]): 12.0 mm
Inhibition zone, with penicillin G (Proteus vulgaris P-5 [16]; [26]): 12.0 mm
Diameter of inhibitory zone, Cephaloridine-added (Proteus vulgaris P-5 [16]; Table 8, comparison disc 20 μl of 10,000 μg/ml, cephaloridine in the agar): 12.0 mm
zone of inhibition at 240 µg/mL (Serratia marcescens S-18 [17]; Serratia marcescens, S18, 18 h, read-out: Inhibition zone, Control): 11 mm
Inhibition zone, with cephaloridine (Serratia marcescens S-18 [17]; [25]): 11.0 mm
Inhibition zone, with penicillin G (Serratia marcescens S-18 [17]; [26]): 11.0 mm
zone of inhibition at 240 µg/mL (Citrobacter freundii E-9 [18]; Citrobacter freundii, E9, 18 h, read-out: Inhibition zone, Control): 12 mm
Inhibition zone, with cephaloridine (Citrobacter freundii E-9 [18]; [25]): 12.0 mm
Inhibition zone, with penicillin G (Citrobacter freundii E-9 [18]; [26]): 12.0 mm
Synergistic enhancement of the activity of penicillin G or cephaloridine (β-lactam antibiotics) [19]: no synergistic effect
Synergistic enhancement of the activity of penicillin G or cephaloridine (β-lactam antibiotics) ([19]; listed as Cephaloridine): No enhancement of antimicrobial activity
MIC (Proteus vulgaris P-5 [9]): > 100 µg/mL
Minimum inhibitory concentration (Proteus vulgaris P-5 [9]; [23]): > 100 µg/mL
MIC ([12]; E16, 20 h): > 100 µg/mL
Minimum inhibitory concentration [12, 23]: > 100 µg/mL
MIC [14]: 0.01 µg/mL (≈ 0.0241 µM)
Minimum inhibitory concentration [14, 24]: 0.01 µg/mL (≈ 0.0241 µM)
